According to the NIST ThermoML archive (doi:10.1021/je301301j):

Assay: xn = mol fraction of the nth substance listed
Conditions: Liquid; for mass density: Vibrating tube method; for viscosity: Concentric cylinders viscometry

C=CCCCC [hex-1-ene] + CCCCO
Conditions	mass density, 273.15 K [kg/m3]	mass density, 293.15 K [kg/m3]	mass density, 313.15 K [kg/m3]	mass density, 333.15 K [kg/m3]	viscosity, 293.15 K [mPa·s]	viscosity, 303.15 K [mPa·s]	viscosity, 313.15 K [mPa·s]
100 kPa, x1 = 0.1001	808.1	792.4	776.5	759.7	–	–	–
100 kPa, x1 = 0.3999	764.1	747	729.5	711.1	–	–	–
100 kPa, x1 = 0.5018	751.4	734	716	697.2	–	–	–
100 kPa, x1 = 0.5997	739	721.2	702.9	683.7	–	–	–
100 kPa, x1 = 0.9	700.4	681.8	662.7	642.8	–	–	–
100 kPa, x1 = 1	691.5	672.8	653.8	634	–	–	–
100 kPa, x2 = 0	–	–	–	–	0.28	0.257	0.236
100 kPa, x2 = 0.1001	–	–	–	–	0.316	0.283	0.255
100 kPa, x2 = 0.2	–	–	–	–	0.355	0.316	0.285
100 kPa, x2 = 0.3002	–	–	–	–	0.422	0.369	0.322
100 kPa, x2 = 0.3999	–	–	–	–	0.522	0.448	0.386
100 kPa, x2 = 0.5018	–	–	–	–	0.669	0.565	0.475
100 kPa, x2 = 0.5997	–	–	–	–	0.86	0.703	0.595
100 kPa, x2 = 0.7002	–	–	–	–	1.159	0.938	0.763
100 kPa, x2 = 0.7999	–	–	–	–	1.558	1.24	0.997
100 kPa, x2 = 0.9	–	–	–	–	2.125	1.667	1.327
1000 kPa, x1 = 0.1001	808.5	793.1	777.2	760.6	–	–	–
1000 kPa, x1 = 0.3999	764.6	747.7	730.4	712.2	–	–	–
1000 kPa, x1 = 0.5018	751.9	734.8	716.9	698.3	–	–	–
1000 kPa, x1 = 0.5997	739.5	722	703.9	684.9	–	–	–
1000 kPa, x1 = 0.9	701	682.7	663.9	644.1	–	–	–
1000 kPa, x1 = 1	692.1	673.8	654.9	635.4	–	–	–
2000 kPa, x1 = 0.1001	809.3	793.8	778.1	761.6	–	–	–
2000 kPa, x1 = 0.3999	765.4	748.6	731.4	713.4	–	–	–
2000 kPa, x1 = 0.5018	752.7	735.7	718	699.6	–	–	–
2000 kPa, x1 = 0.5997	740.4	723	705	686.3	–	–	–
2000 kPa, x1 = 0.9	701.9	683.8	665.1	645.6	–	–	–
2000 kPa, x1 = 1	693	674.9	656.2	636.9	–	–	–
5000 kPa, x1 = 0.1001	811.3	796.2	780.6	764.5	–	–	–
5000 kPa, x1 = 0.3999	767.7	751.2	734.3	716.8	–	–	–
5000 kPa, x1 = 0.5018	755.1	738.4	721.1	703.1	–	–	–
5000 kPa, x1 = 0.5997	742.8	725.8	708.2	690	–	–	–
5000 kPa, x1 = 0.9	704.6	686.9	668.7	649.9	–	–	–
5000 kPa, x1 = 1	695.8	678	659.9	641.3	–	–	–
10000 kPa, x1 = 0.1001	814.6	799.7	784.6	768.9	–	–	–
10000 kPa, x1 = 0.3999	771.4	755.3	739	722	–	–	–
10000 kPa, x1 = 0.5018	758.9	742.7	725.9	708.6	–	–	–
10000 kPa, x1 = 0.5997	746.7	730.2	713.2	695.7	–	–	–
10000 kPa, x1 = 0.9	708.8	691.7	674.2	656.3	–	–	–
10000 kPa, x1 = 1	700	682.9	665.5	647.8	–	–	–
15000 kPa, x1 = 0.1001	817.8	803.2	788.4	773.1	–	–	–
15000 kPa, x1 = 0.3999	774.9	759.2	743.3	727.1	–	–	–
15000 kPa, x1 = 0.5018	762.5	746.7	730.5	713.8	–	–	–
15000 kPa, x1 = 0.5997	750.4	734.4	718	701.1	–	–	–
15000 kPa, x1 = 0.9	712.8	696.2	679.5	662.2	–	–	–
15000 kPa, x1 = 1	704	687.5	670.8	653.9	–	–	–
20000 kPa, x1 = 0.1001	820.8	806.5	792.1	777.2	–	–	–
20000 kPa, x1 = 0.3999	778.2	762.9	747.5	731.6	–	–	–
20000 kPa, x1 = 0.5018	766	750.5	734.8	718.7	–	–	–
20000 kPa, x1 = 0.5997	754	738.3	722.4	706.1	–	–	–
20000 kPa, x1 = 0.9	716.5	700.4	684.2	667.8	–	–	–
20000 kPa, x1 = 1	707.8	691.8	675.7	659.5	–	–	–
30000 kPa, x1 = 0.1001	826.5	812.8	799	784.7	–	–	–
30000 kPa, x1 = 0.3999	784.4	769.9	755.2	740.3	–	–	–
30000 kPa, x1 = 0.5018	772.4	757.7	742.7	728.5	–	–	–
30000 kPa, x1 = 0.5997	760.6	745.7	730.6	715.4	–	–	–
30000 kPa, x1 = 0.9	723.6	708.3	693.1	677.7	–	–	–
30000 kPa, x1 = 1	715	699.8	684.6	669.5	–	–	–
40000 kPa, x1 = 0.1001	831.9	818.6	805.3	791.6	–	–	–
40000 kPa, x1 = 0.3999	790.2	776.3	762.2	748	–	–	–
40000 kPa, x1 = 0.5018	778.4	764.2	749.9	736.5	–	–	–
40000 kPa, x1 = 0.5997	766.8	752.4	738	723.5	–	–	–
40000 kPa, x1 = 0.9	730.1	715.5	700.9	686.5	–	–	–
40000 kPa, x1 = 1	721.6	707	692.6	678.4	–	–	–
50000 kPa, x1 = 0.1001	837	824.1	811.1	798	–	–	–
50000 kPa, x1 = 0.3999	795.7	782.2	768.7	755.2	–	–	–
50000 kPa, x1 = 0.5018	783.9	770.2	756.5	743.8	–	–	–
50000 kPa, x1 = 0.5997	772.3	758.6	744.7	731	–	–	–
50000 kPa, x1 = 0.9	736.1	722.1	708.2	694.4	–	–	–
50000 kPa, x1 = 1	727.6	713.7	699.9	686.3	–	–	–
60000 kPa, x1 = 1	733.2	719.9	706.9	693.7	–	–	–
70000 kPa, x1 = 1	738.7	725.8	713	700.5	–	–	–
